{"source": "patent US7166270B1", "about": "“Methods of screening compounds useful for prevention of infection or pathogenicity” (The Netherlands Cancer Institute, priority 1995, dated 2007)", "tested_on": "Caenorhabditis elegans", "test": "C. elegans fast killing assay on PGS/PG agar", "type": "in vivo", "method": "The rate of killing observed under these conditions is defined as “slow killing.” Briefly, under the slow killing conditions, 5 μl of an overnight liquid culture of PA14 is spread on the center of an NGM (or M9) agar plate and grown for 37° C. for 24 hours. The plates are then allowed to cool to room temperature for several hours. Worms at the fourth larval stage (L4) are added to the agar but not in contact with the bacterial lawn. The worms typically move toward the bacterial lawn and commence feeding. In contrast, when PA14 worms were grown on peptone-glucose-sorbitol (PGS), a richer medium of higher osmolarity, a different result was obtained. When L4 worms were placed on PGS plates, the worms became sluggish, then paralyzed, and then died within 4–24 hours (FIG. 5). Some worms died even before coming into direct contact with the bacterial lawn. This more rapid killing on PGS agar is termed “fast killing.”\nNematode Killing Assay. Worm killing by P. aeruginosa was performed in a plate assay. For the fast killing assay, 5 μl of an overnight King's B (King et al. (1954) J. Lab. Clin. Med. 44:301–307) culture of PA14, or the test strains, were spread on 3.5 cm diameter plates containing PGS or PG agar. A bacterial lawn of about 2 cm diameter grew in the center of plate after incubation at 37° C. for 24 hours. After cooling to room temperature (ranges from 4–12 hours after removal from 37° C. incubator), 40 worms were added to the agar. Unless otherwise stated all worm strains were cultured at 20° C., and the fourth larval (L4) stage was used. The experiments were performed in 3–4 replicates per strain. Bristol N2 was used as the wild-type strain and E. coli OP50 for the negative control. Plates seeded with worms were incubated in 25° C. Worm mortality was scored at various time points. A worm was considered dead when no movement was detectable when touched lightly with an eye-lash pick. Slow killing assays were performed generally as described above."}
{"molecule": "OC[C@@H](O)[C@@H](O)[C@H](O)[C@@H](O)CO", "note": "[sorbitol]", "values": [{"measurement": "effect on PA14 fast killing of C. elegans (in words)", "setting": "0.15 M added to Peptone-Glucose medium, compared to 0.1 M or no sorbitol", "value": "significantly increased the rate of killing"}]}
{"molecule": "EDDA", "values": [{"measurement": "effect on PA14 fast killing of C. elegans (in words)", "setting": "400 μM added to PGS", "value": "did not significantly affect fast killing"}]}
{"molecule": "[Cl][Fe]([Cl])[Cl]", "note": "[FeCl3]", "values": [{"measurement": "effect on PA14 fast killing of C. elegans (in words)", "setting": "100 μM added to PGS", "value": "significantly reduced killing"}]}
